Reference: patent US20230114264A1, “ACTIVATION OF LYTIC GENES IN CANCER CELLS” (priority 2020, published 2023)

Legend:
EBV-negative AKATA cells = test: Functional virion proliferation assay; type: cell-based
Description: Functional virion proliferation assay. SNU-719 HA-dCas9-Tet-on-PUFa-p65HSF1-BZLF1 gRNA (3) or C666-1 HA-dCas9-Tet-on-PUFa-p65HSF1-BZLF1 gRNA (A5) cells were seeded into 15 cm culture dish at 70% density the day before being treated with 1 μg/mL DOX. The supernatant was filtered utilizing a […] (Millipore), and virus was collected by ultra-centrifuged at 20,000 rpm for 4 hours at 4° C. and resuspended in 1:30 fresh medium. EBV negative AKATA cells were treated with the medium containing virus for 96 hours, and RNA samples were extracted for quantitative RT-PCR Analysis (FIG. 8J).

BZLF1 = test: EBV reactivation by BZLF1 gRNA transfection (Casilio) in SNU-719 cells stably expressing HA-dCas9-EGFP and 3×FLAG-PUFa-p65HSF1; type: cell-based, Epstein-Barr virus (EBV)
Description: SNU-719 and C666-1 cells stably expressing HA-dCas9-EGFP and 3×FLAG-PUFa-p65HSF1 were cultivated in RPMI-1640 (Sigma) with 10% fetal bovine serum (FBS) (Gibco) and 1% GlutaMAX (Gibco) and cultured in 37° C. incubator with 5% CO2. EBV reactivation experiments were conducted with cells seeded into 6-well plates at 2×10^6 cells per well the day before transfection. 2 micrograms (μg) of control gRNA or individual BZLF1 gRNA (A3) (SEQ ID NO: 8), gRNA (A4) (SEQ ID NO: 9), gRNA (A5) (SEQ ID NO: 10), or gRNA (A6) (SEQ ID NO: 11) gRNAs were transfected into cells with Lipofectamine 2000 (Invitrogen). After transfection, cells were grown for 48 hours and harvested for protein extraction or FACS (FIGS. 4, 5, 7A-7E).
FACS Analysis. Cells were harvested with trypsin and fixed for 15 minutes (mins) with 4% paraformaldehyde. The cells were then centrifuged at 2000×g for 5 mins and resuspended in 3% BSA for 30 mins. The resuspend cells were centrifuged again at 2000×g for 5 mins. […] Samples were analyzed on a FACSCalibur flow cytometer using CellQuest Pro software (BD Bioscience). […]
Quantitative RT-PCR Analysis. […] Power SYBR Green master mix was used for performing real-time quantitative PCR (RT-qPCR). […] The RT-qPCR samples were analyzed with a Roche LC480 PCR instrument. Gene expression levels were calculated by “delta Ct” algorithm and normalized to control samples.

SNU-719 cells = test: Growth proliferation, viability, apoptosis, cell cycle and clonogenic assays in SNU-719 cells; type: cell-based
Description: Growth proliferation assay. SNU-719 HA-dCas9-Tet-on-PUFa-p65HSF1-BZLF1 gRNA (3) or C666-1 HA-dCas9-Tet-on-PUFa-p65HSF1-BZLF1 gRNA (A5) cells were seeded into individual wells of a 96-well plate for at 1×10^5 cells per well the day before being treated with 1 μg/mL DOX and Ganciclovir (GCV). Cells were counted with the cell counting kit-8 (CCK-8, Sigma) at day 6, day 7, and day 8 (FIGS. 8H-8I).
Active caspase-3 analysis. To detect the apoptosis in DOX treated dCas9-Tet on-p65HSF1-BZLF1sgRNA3 SNU719 and C17 cells, active caspase-3 apoptosis kit (BD Pharmingen #550914) was used. Untreated and treated cells were trypsinized and then fixed with fixation buffer in ice for 20 mins and washed with washing buffer twice. Cells were then stained with the PE conjugated rabbit anti active caspase-3 antibody in dark for 30 mins. Stained cells were collected with BD LSRFortessa.
Cell cycle analysis. After 96 hours from induction of DOX, dCas9-Tet on-p65HSF1-BZLF1sgRNA3 SNU719 and C17 cells were trypsinized and then fixed with 75% cold ethanol for 2 hrs at −20° C. Cells were washed three times with cold PBS and then resuspended in PBS containing 100 μg/mL RNase A and 10 μg/mL propidium iodide for 10 min at room temperature. Stained cells were collected with BD LSRFortessa.
Clonogenic assays. Cells were seeded at a density of 500 cells/well in 6-well plates the day before treatment. Then cells were stained with 0.5% crystal violet 14 days after treatment, and at least 50 cells were considered as a single colony

Question: What does the source list for “BZLF1 gRNA (A5): BZLF1 gRNA spacer sequence SEQ ID NO: 10, GAAACTATGCATGAGCCAC (chemistry not given here)”?
Answer: infection of EBV-negative AKATA cells, EBV gene expression detectable (e.g. LMP1, EBER1, EBNA1, BZLF1, BRLF1) (EBV-negative AKATA cells; supernatant from DOX treated C17 cells): able to infect the EBV-negative AKATA cells; infection of EBV-negative AKATA cells, EBV gene expression detectable (e.g. LMP1, EBER1, EBNA1, BZLF1, BRLF1) (EBV-negative AKATA cells; supernatant from DOX treated SNU-719 cells): able to infect the EBV-negative AKATA cells; infection of EBV-negative AKATA cells and EBV gene expression (e.g. EBER1) (EBV-negative AKATA cells; supernatant from SNU-719 cells expressing HA-dCas9-EGFP, gRNA and 3×FLAG-PUFa-p65HSF1): able to infect and trigger the EBV gene expression; EBV reactivation, induction of BZLF1 (Zta) protein expression (BZLF1; 2 μg gRNA, 48 hours after transfection, protein extraction or FACS): reactivate EBV expression at detectable levels; BZLF1 (ZTa) protein expression by immunostaining (BZLF1; FIG. 7E): activated BZLF1 (ZTa) protein expression; cell cycle by flow cytometry (SNU-719 cells; SNU719, DOX induced, FIG. 17B): sub G1 phase accumulation and S phase decrease; monolayer colony formation (SNU-719 cells; SNU719, after DOX induction, FIG. 17E): dramatic suppression; cell proliferation, apoptosis and growth of cells in vitro (SNU-719 cells; SNU-719, DOX-induced EBV reactivation): suppressed the cell proliferation, induced apoptosis, and slowed the growth of cells; slowing of growth rate of cells compared with cells treated with ganciclovir (GCV) alone (SNU-719 cells; SNU-719, EBV reactivation by 1 μg/mL DOX, FIG. 8I): greater than 4 fold
